Measured values: ChEMBL document CHEMBL2380214, “Novel hybrids of (phenylsulfonyl)furoxan and anilinopyrimidine as potent and selective epidermal growth factor receptor inhibitors for intervention of non-small-cell lung cancer” (J Med Chem, 2013)
Active and inactive are the calls of the source. The calls are words filed in the database; no cut-off is given here.

Columns and labels:
[1] = target: Epidermal growth factor receptor (Homo sapiens, UniProt P00533, L858R/T790M); type: protein assay
Description: Inhibition of EGFR L858R/T790M double mutant (unknown origin) after 1.5 hrs by FRET-based Z'Lyte assay

[2] = target: Epidermal growth factor receptor (Homo sapiens, UniProt P00533, L858R); type: protein assay
Chain of Epidermal growth factor receptor (Homo sapiens, UniProt P00533, L858R) (P00533 25-1210 L858R limits assumed): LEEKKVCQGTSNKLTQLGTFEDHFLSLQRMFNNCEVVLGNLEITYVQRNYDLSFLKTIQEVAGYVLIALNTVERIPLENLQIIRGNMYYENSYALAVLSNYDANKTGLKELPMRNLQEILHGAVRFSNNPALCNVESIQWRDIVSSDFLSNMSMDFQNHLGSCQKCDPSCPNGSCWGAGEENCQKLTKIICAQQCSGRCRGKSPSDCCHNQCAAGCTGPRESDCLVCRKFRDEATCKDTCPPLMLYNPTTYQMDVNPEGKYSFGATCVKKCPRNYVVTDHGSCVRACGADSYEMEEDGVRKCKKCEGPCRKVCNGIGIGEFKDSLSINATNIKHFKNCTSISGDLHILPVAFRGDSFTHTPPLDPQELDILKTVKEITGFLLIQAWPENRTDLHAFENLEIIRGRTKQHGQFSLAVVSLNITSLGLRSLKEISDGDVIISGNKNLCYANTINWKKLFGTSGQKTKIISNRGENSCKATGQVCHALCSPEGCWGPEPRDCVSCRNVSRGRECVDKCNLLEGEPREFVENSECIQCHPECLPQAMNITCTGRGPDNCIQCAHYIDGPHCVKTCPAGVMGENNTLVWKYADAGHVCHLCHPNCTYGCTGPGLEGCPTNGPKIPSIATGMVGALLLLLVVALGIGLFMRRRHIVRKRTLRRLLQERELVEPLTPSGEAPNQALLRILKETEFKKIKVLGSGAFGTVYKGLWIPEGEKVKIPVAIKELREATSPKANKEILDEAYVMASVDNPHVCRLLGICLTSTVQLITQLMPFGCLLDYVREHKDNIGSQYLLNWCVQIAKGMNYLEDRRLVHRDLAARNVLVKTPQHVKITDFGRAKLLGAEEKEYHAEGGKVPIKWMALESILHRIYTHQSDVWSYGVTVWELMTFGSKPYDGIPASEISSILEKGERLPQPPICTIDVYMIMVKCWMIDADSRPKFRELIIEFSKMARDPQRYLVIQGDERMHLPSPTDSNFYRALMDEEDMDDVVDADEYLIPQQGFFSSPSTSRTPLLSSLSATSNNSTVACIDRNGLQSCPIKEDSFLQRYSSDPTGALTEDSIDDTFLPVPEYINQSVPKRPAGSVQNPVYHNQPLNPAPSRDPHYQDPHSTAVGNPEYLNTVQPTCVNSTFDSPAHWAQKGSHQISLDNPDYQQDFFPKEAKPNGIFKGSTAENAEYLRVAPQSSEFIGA
Description: Inhibition of EGFR L858R mutant (unknown origin) after 1.5 hrs by FRET-based Z'Lyte assay

NCI-H1975 [3] = assay: Induction of NO production in human NCI-H1975 cells harboring EGFR L858R/[…] double mutant assessed as increase in nitrite level at 100 uM after 150 mins by Griess assay; type: functional, cell-based
cells [4] = type: ADME, cell-based; conditions: Homo sapiens, BEAS-2B, 72 h
Description: Cytotoxicity against human BEAS2B cells harboring wild type EGFR assessed as growth inhibition after 72 hrs by MTT assay

cells [5] = type: ADME, cell-based; conditions: Homo sapiens, 16HBE14o-, 72 h
Description: Cytotoxicity against human 16HBE14o- cells harboring wild type EGFR assessed as growth inhibition after 72 hrs by MTT assay

NCI-H1975 [6] = assay: Cytotoxicity against gefitinib-resistant human NCI-H1975 cells harboring EGFR L858R/[…] double mutant assessed as growth inhibition after 72 hrs by MTT assay; type: functional, cell-based; conditions: NCI-H1975, 72 h
cells [7] = type: functional, cell-based; conditions: Homo sapiens, HCC827, 72 h
[8] = target: Epidermal growth factor receptor (Homo sapiens, UniProt P00533)
Chain of Epidermal growth factor receptor (Homo sapiens, UniProt P00533) (P00533 whole entry): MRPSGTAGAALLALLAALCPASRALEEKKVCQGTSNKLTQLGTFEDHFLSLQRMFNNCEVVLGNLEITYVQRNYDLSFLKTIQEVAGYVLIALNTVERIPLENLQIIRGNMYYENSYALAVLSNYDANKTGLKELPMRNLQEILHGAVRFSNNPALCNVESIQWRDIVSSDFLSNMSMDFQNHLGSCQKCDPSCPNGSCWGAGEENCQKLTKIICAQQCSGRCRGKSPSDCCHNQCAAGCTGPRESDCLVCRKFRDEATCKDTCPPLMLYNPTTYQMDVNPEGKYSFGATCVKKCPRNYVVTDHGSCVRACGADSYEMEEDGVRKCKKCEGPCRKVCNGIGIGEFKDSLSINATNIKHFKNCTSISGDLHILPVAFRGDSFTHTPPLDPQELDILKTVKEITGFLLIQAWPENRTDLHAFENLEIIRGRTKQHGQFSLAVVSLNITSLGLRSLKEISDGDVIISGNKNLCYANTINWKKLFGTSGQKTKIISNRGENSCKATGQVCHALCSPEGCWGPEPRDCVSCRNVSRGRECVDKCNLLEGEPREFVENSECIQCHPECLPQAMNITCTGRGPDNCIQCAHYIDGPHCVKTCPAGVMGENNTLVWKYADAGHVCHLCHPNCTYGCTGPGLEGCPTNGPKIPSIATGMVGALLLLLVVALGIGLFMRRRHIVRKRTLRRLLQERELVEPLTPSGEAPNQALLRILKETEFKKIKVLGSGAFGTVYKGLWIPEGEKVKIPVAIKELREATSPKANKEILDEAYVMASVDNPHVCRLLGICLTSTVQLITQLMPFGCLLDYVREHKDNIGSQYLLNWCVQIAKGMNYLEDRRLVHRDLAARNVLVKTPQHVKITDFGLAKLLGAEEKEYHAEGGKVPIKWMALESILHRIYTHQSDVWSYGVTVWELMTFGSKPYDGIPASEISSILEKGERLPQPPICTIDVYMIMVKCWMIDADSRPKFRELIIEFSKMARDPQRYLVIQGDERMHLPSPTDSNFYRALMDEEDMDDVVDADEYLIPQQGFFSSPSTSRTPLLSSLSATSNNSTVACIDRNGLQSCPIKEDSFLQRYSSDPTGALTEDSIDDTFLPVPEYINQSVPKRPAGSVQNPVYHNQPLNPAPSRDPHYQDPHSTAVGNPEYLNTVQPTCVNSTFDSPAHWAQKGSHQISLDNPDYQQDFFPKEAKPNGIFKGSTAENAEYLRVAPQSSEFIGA
Description: Inhibition of wild type EGFR (unknown origin) after 1.5 hrs by FRET-based Z'Lyte assay

A549 = assay: cells; type: ADME, cell-based; conditions: Homo sapiens, A549, 72 h
Description: Cytotoxicity against human A549 cells harboring wild type EGFR and k-RAS mutation assessed as growth inhibition after 72 hrs by MTT assay

A-431 = assay: cells; type: ADME, cell-based; conditions: Homo sapiens, A-431, 72 h
Description: Cytotoxicity against human A431 cells overexpressing wild type EGFR assessed as growth inhibition after 72 hrs by MTT assay

[9] = Selectivity ratio of IC50 for human BEAS2B cells harboring wild type EGFR to IC50 for gefitinib-resistant human NCI-H1975 cells harboring EGFR L858R/[…] double mutant; type: ADME, cell-based; conditions: read-out: Ratio IC50
[10] = Selectivity ratio of IC50 for human 16HBE14o- cells harboring wild type EGFR to IC50 for gefitinib-resistant human NCI-H1975 cells harboring EGFR L858R/[…] double mutant; type: ADME, cell-based; conditions: read-out: Ratio IC50
[11] = Selectivity ratio of IC50 for human 16HBE14o- cells harboring wild type EGFR to IC50 for gefitinib-sensitive human HCC827 cells harboring EGFR […] deletion mutant; type: ADME, cell-based; conditions: read-out: Ratio IC50
[12] = Selectivity ratio of IC50 for human BEAS2B cells harboring wild type EGFR to IC50 for gefitinib-sensitive human HCC827 cells harboring EGFR […] deletion mutant; type: ADME, cell-based; conditions: read-out: Ratio IC50
[13] = Selectivity ratio of IC50 for human A549 cells harboring wild type EGFR and k-RAS mutation to IC50 for gefitinib-sensitive human HCC827 cells harboring EGFR […] deletion mutant; type: ADME, cell-based
[14] = Selectivity ratio of IC50 for human A431 cells overexpressing wild type EGFR to IC50 for gefitinib-resistant human NCI-H1975 cells harboring EGFR L858R/[…] double mutant; type: ADME, cell-based
[15] = Selectivity ratio of IC50 for human A431 cells overexpressing wild type EGFR to IC50 for gefitinib-sensitive human HCC827 cells harboring EGFR […] deletion mutant; type: ADME, cell-based
[16] = Selectivity ratio of IC50 for human A549 cells harboring wild type EGFR and k-RAS mutation to IC50 for gefitinib-resistant human NCI-H1975 cells harboring EGFR L858R/[…] double mutant; type: ADME, cell-based
[17] = test system: Epidermal growth factor receptor (Homo sapiens), P00533 [L858R,T790M]; conditions: NCI-H1975, 0.01 to 1 uM
Chain of Epidermal growth factor receptor (Homo sapiens), P00533 [L858R,T790M] (P00533 whole entry T790M/L858R, looked up): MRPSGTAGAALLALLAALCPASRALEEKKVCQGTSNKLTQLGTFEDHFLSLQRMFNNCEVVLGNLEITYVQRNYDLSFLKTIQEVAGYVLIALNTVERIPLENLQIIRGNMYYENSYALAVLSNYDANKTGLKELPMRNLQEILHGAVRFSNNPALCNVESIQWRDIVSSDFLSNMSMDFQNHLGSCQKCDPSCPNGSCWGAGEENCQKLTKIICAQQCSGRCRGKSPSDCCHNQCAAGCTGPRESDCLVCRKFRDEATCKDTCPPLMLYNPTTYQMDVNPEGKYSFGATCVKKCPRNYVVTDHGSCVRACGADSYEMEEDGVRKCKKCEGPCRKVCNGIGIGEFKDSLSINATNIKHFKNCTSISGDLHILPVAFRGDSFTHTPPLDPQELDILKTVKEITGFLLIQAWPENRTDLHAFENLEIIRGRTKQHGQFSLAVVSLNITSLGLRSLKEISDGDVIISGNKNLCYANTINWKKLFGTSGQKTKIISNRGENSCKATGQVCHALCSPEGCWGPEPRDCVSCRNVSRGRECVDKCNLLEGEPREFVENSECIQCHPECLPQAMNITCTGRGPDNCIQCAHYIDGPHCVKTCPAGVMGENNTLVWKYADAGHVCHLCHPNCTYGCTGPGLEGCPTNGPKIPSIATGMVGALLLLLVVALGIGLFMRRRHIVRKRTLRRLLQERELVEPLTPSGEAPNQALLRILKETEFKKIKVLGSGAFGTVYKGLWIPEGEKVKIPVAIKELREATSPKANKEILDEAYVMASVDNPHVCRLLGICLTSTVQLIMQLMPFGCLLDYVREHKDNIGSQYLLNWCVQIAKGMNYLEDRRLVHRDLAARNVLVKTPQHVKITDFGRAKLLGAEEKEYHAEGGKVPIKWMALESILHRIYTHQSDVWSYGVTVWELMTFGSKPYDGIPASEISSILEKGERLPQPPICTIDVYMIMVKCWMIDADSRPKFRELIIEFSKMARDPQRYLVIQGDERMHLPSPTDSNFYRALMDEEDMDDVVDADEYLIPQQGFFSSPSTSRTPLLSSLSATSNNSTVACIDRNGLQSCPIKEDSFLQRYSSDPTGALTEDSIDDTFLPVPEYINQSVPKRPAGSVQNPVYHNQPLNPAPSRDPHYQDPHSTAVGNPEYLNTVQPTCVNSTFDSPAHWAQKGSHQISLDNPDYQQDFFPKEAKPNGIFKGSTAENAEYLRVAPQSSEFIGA

[18] = Induction of apoptosis in EGFR-independent human H460 cells at 1 to 5 uM after 24 hrs by annexin-V/7-AAD staining-based FACS flow cytometric analysis; type: cell-based; conditions: nci-h460, 24 h
NCI-H1975 [19] = assay: Induction of apoptosis in gefitinib-resistant human NCI-H1975 cells harboring EGFR L858R/[…] double mutant after 24 hrs by annexin-V/7-AAD staining-based FACS flow cytometric analysis; type: functional, cell-based
[20] = Induction of NO production in human 16HBE14o- cells harboring wild type EGFR assessed as increase in nitrite level at 100 uM after 150 mins by Griess assay; type: cell-based; conditions: 2.5 h
NCI-H1975 [21] = assay: Antitumor activity against gefitinib-resistant human NCI-H1975 cells harboring EGFR L858R/[…] double mutant xenografted in athymic BALB/c nude mouse assessed as tumor growth inhibition at 8 mg/kg, ip qd administered for 14 days measured every other day during compound administration relative to vehicle-treated control; type: functional; conditions: 336 h, route intraperitoneal, read-out: TGI
[22] = test system: Epidermal growth factor receptor (Homo sapiens), P00533 [L858R,T790M]; conditions: NCI-H1975, 0.01 to 1 uM; remark: listed apart in the source
HCC827 = assay: Induction of apoptosis in gefitinib-sensitive human HCC827 cells harboring EGFR […] deletion mutant after 24 hrs by annexin-V/7-AAD staining-based FACS flow cytometric analysis; type: functional, cell-based
[23] = test system: Epidermal growth factor receptor (Homo sapiens), P00533 [L858R,T790M]; conditions: NCI-H1975, 0.01 to 1 uM; remark: listed apart in the source
NCI-H1975 [24] = assay: Inhibition of NFkappaB phosphorylation in gefitinib-resistant human NCI-H1975 cells harboring EGFR L858R/[…] double mutant at 0.01 to 1 uM after 24 hrs by Western blot analysis; type: cell-based

Chain of Epidermal growth factor receptor (Homo sapiens, UniProt P00533, L858R/T790M) (P00533 25-1210 T790M/L858R limits assumed): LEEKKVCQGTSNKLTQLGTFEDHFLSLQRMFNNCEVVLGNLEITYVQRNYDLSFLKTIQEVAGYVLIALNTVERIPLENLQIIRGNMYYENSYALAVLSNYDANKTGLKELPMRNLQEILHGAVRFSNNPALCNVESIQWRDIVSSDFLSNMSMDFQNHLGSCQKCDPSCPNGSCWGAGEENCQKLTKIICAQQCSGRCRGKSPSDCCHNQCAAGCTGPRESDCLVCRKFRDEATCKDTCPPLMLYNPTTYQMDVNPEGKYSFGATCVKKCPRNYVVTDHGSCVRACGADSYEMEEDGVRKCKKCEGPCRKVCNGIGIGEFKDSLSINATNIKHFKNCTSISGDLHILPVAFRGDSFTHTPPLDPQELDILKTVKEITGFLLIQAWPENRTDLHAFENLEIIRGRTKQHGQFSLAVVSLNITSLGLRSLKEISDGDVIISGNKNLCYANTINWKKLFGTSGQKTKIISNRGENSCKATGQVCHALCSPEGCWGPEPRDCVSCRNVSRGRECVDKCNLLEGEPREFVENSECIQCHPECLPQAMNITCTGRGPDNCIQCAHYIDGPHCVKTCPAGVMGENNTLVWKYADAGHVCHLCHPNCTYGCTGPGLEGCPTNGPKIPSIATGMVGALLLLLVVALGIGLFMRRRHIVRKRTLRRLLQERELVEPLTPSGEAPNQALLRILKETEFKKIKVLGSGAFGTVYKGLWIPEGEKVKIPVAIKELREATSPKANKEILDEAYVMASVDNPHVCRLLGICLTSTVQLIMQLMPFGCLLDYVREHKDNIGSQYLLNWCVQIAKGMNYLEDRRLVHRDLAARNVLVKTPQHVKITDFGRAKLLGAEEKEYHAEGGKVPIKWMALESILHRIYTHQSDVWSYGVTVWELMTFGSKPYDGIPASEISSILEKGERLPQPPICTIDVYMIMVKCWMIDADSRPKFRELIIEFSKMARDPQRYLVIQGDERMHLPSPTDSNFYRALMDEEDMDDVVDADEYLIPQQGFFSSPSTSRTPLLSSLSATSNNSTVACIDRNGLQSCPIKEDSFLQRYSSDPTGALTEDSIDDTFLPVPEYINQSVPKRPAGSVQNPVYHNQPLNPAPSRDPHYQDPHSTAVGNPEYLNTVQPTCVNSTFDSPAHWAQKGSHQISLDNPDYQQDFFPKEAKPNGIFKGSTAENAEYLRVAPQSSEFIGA

Compound	IC50 [1]	IC50 [2]	Activity (NCI-H1975 [3])	IC50 (cells [4])	IC50 (cells [5])	IC50 (NCI-H1975 [6])	IC50 (cells [7])	IC50 [8]	IC50 (A549)	IC50 (A-431)	other results
C=CC(=O)Nc1cccc(Oc2nc(Nc3ccc(N4CCN(CC(=O)NCCOc5no[n+]([O-])c5S(=O)(=O)c5ccccc5)CC4)cc3OC)ncc2Cl)c1	14 nM	63 nM	Active	1530 nM	1550 nM	2020 nM	9 nM	51 nM	2260 nM	736 nM	
C=CC(=O)Nc1cccc(Oc2nc(Nc3ccc(N4CCN(CC(=O)OCCCOc5no[n+]([O-])c5S(=O)(=O)c5ccccc5)CC4)cc3OC)ncc2Cl)c1	23 nM	98 nM		2980 nM	2580 nM	396 nM	22 nM	99 nM	2930 nM	1060 nM	
C=CC(=O)Nc1cccc(Oc2nc(Nc3ccc(N4CCN(CC(=O)N5CCN(CCOc6no[n+]([O-])c6S(=O)(=O)c6ccccc6)CC5)CC4)cc3OC)ncc2Cl)c1	6 nM	40 nM	Active	1890 nM	1480 nM	311 nM	291 nM	39 nM	2120 nM	609 nM	
C=CC(=O)Nc1cccc(Oc2nc(Nc3ccc(N4CCN(CC(=O)OCCOc5no[n+]([O-])c5S(=O)(=O)c5ccccc5)CC4)cc3OC)ncc2Cl)c1	17 nM	83 nM		1350 nM	2040 nM	63 nM	7 nM	59 nM	2560 nM	1230 nM	
C=CC(=O)Nc1cccc(Oc2nc(Nc3ccc(N4CCN(CC(=O)OCC)CC4)cc3OC)ncc2Cl)c1				> 50000 nM	707 nM	1510 nM	100 nM		1450 nM	> 10000 nM	
C=CC(=O)Nc1cccc(Oc2nc(Nc3ccc(N4CCN(CC(=O)N5CCC(Oc6no[n+]([O-])c6S(=O)(=O)c6ccccc6)CC5)CC4)cc3OC)ncc2Cl)c1	13 nM	66 nM		2200 nM	1800 nM	855 nM	33 nM	42 nM	4250 nM	701 nM	
C=CC(=O)Nc1cccc(Oc2nc(Nc3ccc(N4CCN(CC(=O)OCCOCCOc5no[n+]([O-])c5S(=O)(=O)c5ccccc5)CC4)cc3OC)ncc2Cl)c1	30 nM	113 nM	Active	2940 nM	3160 nM	471 nM	41 nM	101 nM	4450 nM	3020 nM	
C=CC(=O)Nc1cccc(Oc2nc(Nc3ccc(N4CCN(CC(=O)NCCCOc5no[n+]([O-])c5S(=O)(=O)c5ccccc5)CC4)cc3OC)ncc2Cl)c1	13 nM	68 nM		2440 nM	2280 nM	1030 nM	21 nM	59 nM	2480 nM	357 nM	
C=CC(=O)Nc1cccc(Oc2nc(Nc3ccc(N4CCN(CC(=O)OCCCCOc5no[n+]([O-])c5S(=O)(=O)c5ccccc5)CC4)cc3OC)ncc2Cl)c1	38 nM	189 nM		2560 nM	4150 nM	69 nM	6 nM	174 nM	17200 nM	4070 nM	selectivity ratio [9]: 40; selectivity ratio [10]: 40; selectivity ratio [11]: 40; selectivity ratio [12]: 40; Ratio IC50 [13]: 60; Ratio IC50 [14]: 60; Ratio IC50 [15]: 60; Ratio IC50 [16]: 60
O=S(=O)(c1ccccc1)c1c(OCCCCCCO)no[n+]1[O-]			Active	1240 nM	3400 nM	5930 nM	4290 nM		23600 nM	3380 nM	
C=CC(=O)Nc1cccc(Oc2nc(Nc3ccc(N4CCN(C)CC4)cc3OC)ncc2Cl)c1			inactive	1810 nM		46 nM	8 nM		2100 nM		inhibition [17]: Active; Activity [18]: Non-toxic; Activity (NCI-H1975 [19]): Dose-dependent effect; Activity [20]: Non-toxic; inhibition in vivo at 8 mg/kg (NCI-H1975 [21]): 69%; inhibition [22]: Active; Activity (HCC827): Dose-dependent effect; inhibition [23]: Active; inhibition (NCI-H1975 [24]): inactive
C=CC(=O)Nc1cccc(Oc2nc(Nc3ccc(N4CCN(CC(=O)OCC#CCOc5no[n+]([O-])c5S(=O)(=O)c5ccccc5)CC4)cc3OC)ncc2Cl)c1	16 nM	64 nM	Active	959 nM	2620 nM	43 nM	10 nM	52 nM	5530 nM	3500 nM	
C=CC(=O)Nc1cccc(Oc2nc(Nc3ccc(N4CCN(CC(=O)NCC(C)Oc5no[n+]([O-])c5S(=O)(=O)c5ccccc5)CC4)cc3OC)ncc2Cl)c1 (stereo not given)	20 nM	99 nM	Active	988 nM	1850 nM	245 nM	38 nM	73 nM	1790 nM	660 nM	
